Laboratory results reported in publication PMC5218480 (PLoS ONE, 2017).

Tested on: MV-4-11 cells
Assay: Gene expression microarray analysis (Affymetrix PrimeView) and GSEA
Assay type: cell-based, human
Design: RFU PODN (11730768_x_at) / Fold change /veh PODN (11730768_x_at) / RFU LINC00158 (11744669_a_at) / Fold change /veh LINC00158 (11744669_a_at) / RFU DUSP10 (11751237_a_at) / Fold change /veh DUSP10 (11751237_a_at) / RFU ID3 (11757404_x_at) / Fold change /veh ID3 (11757404_x_at) / RFU PLEKHG5 (11737974_s_at) / Fold change /veh PLEKHG5 (11737974_s_at) / RFU LRRC4B (11730491_at) / Fold change /veh LRRC4B (11730491_at) / RFU GIMAP4 (11747438_a_at) / Fold change /veh GIMAP4 (11747438_a_at) / RFU KRT8 (11758183_x_at) / Fold change /veh KRT8 (11758183_x_at) / RFU CNN1 (11734310_a_at) / Fold change /veh CNN1 (11734310_a_at) / RFU VPS37D (11726825_at) / Fold change /veh VPS37D (11726825_at) / RFU C10orf10 (11716522_x_at) / Fold change /veh C10orf10 (11716522_x_at) / RFU KIR2DL2 /// KIR2DL4 /// KIR2DL5A /// KIR2DL5B /// KIR2DS1 /// KIR2DS2 /// KIR2DS3 /// KIR2DS4 /// KIR3DL3 /// KIR3DL3 /// KIR3DS1 (11738374_at) / Fold change /veh KIR2DL2 /// KIR2DL4 /// KIR2DL5A /// KIR2DL5B /// KIR2DS1 /// KIR2DS2 /// KIR2DS3 /// KIR2DS4 /// KIR3DL3 /// KIR3DL3 /// KIR3DS1 (11738374_at) / RFU C1QL1 (11718748_at) / Fold change /veh C1QL1 (11718748_at) / RFU TMPRSS4 (11747572_a_at) / Fold change /veh TMPRSS4 (11747572_a_at) / RFU HAMP (11756126_x_at) / Fold change /veh HAMP (11756126_x_at) / RFU RNFT2 (11725882_a_at) / Fold change /veh RNFT2 (11725882_a_at) / RFU NR4A2 (11747474_a_at) / Fold change /veh NR4A2 (11747474_a_at) / RFU ABCC12 (11746883_a_at) / Fold change /veh ABCC12 (11746883_a_at) / RFU TMEM136 (11760407_x_at) / Fold change /veh TMEM136 (11760407_x_at) / RFU CLDN22 /// WWC2 (11732394_at) / Fold change /veh CLDN22 /// WWC2 (11732394_at) / RFU HLA-DPB1 (11760878_x_at) / Fold change /veh HLA-DPB1 (11760878_x_at) / RFU SPINT1 (11716480_a_at) / Fold change /veh SPINT1 (11716480_a_at) / RFU GAP43 (11754022_s_at) / Fold change /veh GAP43 (11754022_s_at) / RFU A4GNT (11735810_at) / Fold change /veh A4GNT (11735810_at) / RFU PRB3 (11715151_x_at) / Fold change /veh PRB3 (11715151_x_at) / RFU TUBB4B (11761932_at) / Fold change /veh TUBB4B (11761932_at) / RFU CAPN14 (11732068_a_at) / Fold change /veh CAPN14 (11732068_a_at) / RFU TMCC2 (11721928_a_at) / Fold change /veh TMCC2 (11721928_a_at) / RFU IRGQ (11745062_a_at) / Fold change /veh IRGQ (11745062_a_at) / RFU FAM174B (11720279_a_at) / Fold change /veh FAM174B (11720279_a_at) / RFU TMPRSS4 (11748680_a_at) / Fold change /veh TMPRSS4 (11748680_a_at) / RFU FAM212B (11763350_a_at) / Fold change /veh FAM212B (11763350_a_at) / RFU PLEKHG5 (11743358_a_at) / Fold change /veh PLEKHG5 (11743358_a_at) / RFU ZSCAN30 (11745921_a_at) / Fold change /veh ZSCAN30 (11745921_a_at) / RFU CMKLR1 (11741424_a_at) / Fold change /veh CMKLR1 (11741424_a_at) / RFU LOC101060620 /// MAPK8IP1 (11723275_at) / Fold change /veh LOC101060620 /// MAPK8IP1 (11723275_at) / RFU SPTSSB (11747773_x_at) / Fold change /veh SPTSSB (11747773_x_at) / RFU PRSS12 (11739890_at) / Fold change /veh PRSS12 (11739890_at) / RFU BIN1 (11741810_x_at) / Fold change /veh BIN1 (11741810_x_at) / RFU WNT11 (11732464_a_at) / Fold change /veh WNT11 (11732464_a_at) / RFU C10orf10 (11716521_a_at) / Fold change /veh C10orf10 (11716521_a_at) / RFU C5orf56 (11738089_at) / Fold change /veh C5orf56 (11738089_at) / RFU CYB561 (11721691_x_at) / Fold change /veh CYB561 (11721691_x_at) / RFU ANKRD19P (11752326_a_at) / Fold change /veh ANKRD19P (11752326_a_at) / RFU OR2T12 /// OR2T33 /// OR2T8 (11738714_s_at) / Fold change /veh OR2T12 /// OR2T33 /// OR2T8 (11738714_s_at) / RFU VCAN (11748164_a_at) / Fold change /veh VCAN (11748164_a_at) / RFU JSRP1 (11732532_at) / Fold change /veh JSRP1 (11732532_at) / RFU KRTAP10-11 (11738290_x_at) / Fold change /veh KRTAP10-11 (11738290_x_at) / RFU MYO3A (11730013_a_at) / Fold change /veh MYO3A (11730013_a_at) / RFU EBF3 (11725865_a_at) / Fold change /veh EBF3 (11725865_a_at) / RFU CAMK2N1 (11719241_x_at) / Fold change /veh CAMK2N1 (11719241_x_at) / RFU C5orf56 (11738088_a_at) / Fold change /veh C5orf56 (11738088_a_at) / RFU OLFML3 (11715873_a_at) / Fold change /veh OLFML3 (11715873_a_at) / RFU LOC100653217 /// NTM (11731650_a_at) / Fold change /veh LOC100653217 /// NTM (11731650_a_at) / RFU MAPK11 (11762145_a_at) / Fold change /veh MAPK11 (11762145_a_at) / RFU FIZ1 (11724087_x_at) / Fold change /veh FIZ1 (11724087_x_at) / RFU OASL (11726364_x_at) / Fold change /veh OASL (11726364_x_at) / RFU SOX15 (11748057_x_at) / Fold change /veh SOX15 (11748057_x_at) / RFU CD79A (11719716_a_at) / Fold change /veh CD79A (11719716_a_at) / RFU HIST1H1D (11736915_at) / Fold change /veh HIST1H1D (11736915_at) / RFU CASKIN2 (11723855_a_at) / Fold change /veh CASKIN2 (11723855_a_at) / RFU LOC730098 (11760151_x_at) / Fold change /veh LOC730098 (11760151_x_at) / RFU OR4N2 (11742367_at) / Fold change /veh OR4N2 (11742367_at) / RFU PRRT2 (11749266_a_at) / Fold change /veh PRRT2 (11749266_a_at) / RFU SNX32 (11753110_a_at) / Fold change /veh SNX32 (11753110_a_at) / RFU CDHR5 (11726645_a_at) / Fold change /veh CDHR5 (11726645_a_at) / RFU RCAN1 (11760418_a_at) / Fold change /veh RCAN1 (11760418_a_at) / RFU FAM167A (11723789_a_at) / Fold change /veh FAM167A (11723789_a_at) / RFU FAM26E (11764081_at) / Fold change /veh FAM26E (11764081_at) / RFU ISYNA1 (11749810_s_at) / Fold change /veh ISYNA1 (11749810_s_at) / RFU ACY1 (11761880_at) / Fold change /veh ACY1 (11761880_at) / RFU 11764098_at / Fold change /veh 11764098_at / RFU SAMD14 (11745864_x_at) / Fold change /veh SAMD14 (11745864_x_at) / RFU NPB (11741838_a_at) / Fold change /veh NPB (11741838_a_at) / RFU TMPRSS6 (11731388_a_at) / Fold change /veh TMPRSS6 (11731388_a_at) / RFU KRTAP10-2 (11738614_at) / Fold change /veh KRTAP10-2 (11738614_at) / RFU ARHGAP8 /// PRR5-ARHGAP8 (11727945_x_at) / Fold change /veh ARHGAP8 /// PRR5-ARHGAP8 (11727945_x_at) / RFU KRTAP5-7 /// NADSYN1 (11734609_at) / Fold change /veh KRTAP5-7 /// NADSYN1 (11734609_at) / RFU RASL12 (11751679_a_at) / Fold change /veh RASL12 (11751679_a_at) / RFU CDKN2B (11736163_a_at) / Fold change /veh CDKN2B (11736163_a_at) / RFU PRF1 (11729649_at) / Fold change /veh PRF1 (11729649_at) / RFU, ZNF638 /// ZNF638-IT1 / Fold change vs veh, ZNF638 /// ZNF638-IT1 / RFU, PANK3 / Fold change vs veh, PANK3 / RFU, SH3YL1 / Fold change vs veh, SH3YL1 / RFU, ZEB2 / Fold change vs veh, ZEB2 / RFU, NRIP1 / Fold change vs veh, NRIP1 / RFU, PTTG1IP / Fold change vs veh, PTTG1IP / RFU, CAPN2 / Fold change vs veh, CAPN2 / RFU, MED14 / Fold change vs veh, MED14 / RFU, SNORA58 / Fold change vs veh, SNORA58 / RFU, C1orf63 / Fold change vs veh, C1orf63 / RFU, LRRFIP1 / Fold change vs veh, LRRFIP1 / RFU, NDUFAF7 / Fold change vs veh, NDUFAF7 / RFU, SLC12A2 / Fold change vs veh, SLC12A2 / RFU, IBTK / Fold change vs veh, IBTK / RFU, ESF1 / Fold change vs veh, ESF1 / Fold change vs veh, TMEM50B / RFU, TAOK1 / Fold change vs veh, TAOK1 / RFU, ACBD3 / Fold change vs veh, ACBD3 / RFU, TMA16 / Fold change vs veh, TMA16 / RFU, RWDD3 / Fold change vs veh, RWDD3 / RFU, BCAT1 / Fold change vs veh, BCAT1 / RFU, EDEM3 / Fold change vs veh, EDEM3 / RFU, TMEM33 / Fold change vs veh, TMEM33 / RFU, WDR75 / Fold change vs veh, WDR75 / RFU, AHCTF1 / Fold change vs veh, AHCTF1 / RFU, TFRC / Fold change vs veh, TFRC / RFU, ZDHHC17 / Fold change vs veh, ZDHHC17 / RFU, NOM1 / Fold change vs veh, NOM1 / RFU, ARL8B / Fold change vs veh, ARL8B / RFU, ZBTB11 / Fold change vs veh, ZBTB11 / RFU, TAMM41 / Fold change vs veh, TAMM41 / RFU, KIAA1704 /// LOC100996395 / Fold change vs veh, KIAA1704 /// LOC100996395 / RFU, ING1 / Fold change vs veh, ING1 / RFU, TRMT61B / Fold change vs veh, TRMT61B / RFU, FUBP3 / Fold change vs veh, FUBP3 / RFU, TP53 / Fold change vs veh, TP53 / RFU, TNKS2 / Fold change vs veh, TNKS2 / RFU, ZFP14 / Fold change vs veh, ZFP14 / RFU, ACTR2 / Fold change vs veh, ACTR2 / RFU, PPP3R1 / Fold change vs veh, PPP3R1 / RFU, PIK3R1 / Fold change vs veh, PIK3R1 / RFU, HNRNPA1 / Fold change vs veh, HNRNPA1 / RFU, RNF170 / Fold change vs veh, RNF170 / RFU, ZNF28 / Fold change vs veh, ZNF28 / RFU, RNGTT / Fold change vs veh, RNGTT / RFU, OGT / Fold change vs veh, OGT / RFU, BRD1 / Fold change vs veh, BRD1 / RFU, MARS / Fold change vs veh, MARS / RFU, ZNF655 / Fold change vs veh, ZNF655 / RFU, FAHD1 / Fold change vs veh, FAHD1 / RFU, BDP1 / Fold change vs veh, BDP1 / RFU, LRRCC1 / Fold change vs veh, LRRCC1 / RFU, ARID1A / Fold change vs veh, ARID1A / RFU, ZNF146 / Fold change vs veh, ZNF146 / RFU, ZNF330 / Fold change vs veh, ZNF330 / RFU, GPN3 / Fold change vs veh, GPN3 / RFU, C9orf123 / Fold change vs veh, C9orf123 / RFU, N4BP2L2 / Fold change vs veh, N4BP2L2 / RFU, ARFIP1 / Fold change vs veh, ARFIP1 / RFU, FAM179B / Fold change vs veh, FAM179B / RFU, BCL10 / Fold change vs veh, BCL10 / RFU, UHRF1BP1L / Fold change vs veh, UHRF1BP1L / RFU, BET1 / Fold change vs veh, BET1 / RFU, CNOT2 / Fold change vs veh, CNOT2 / RFU, ZNF268 / Fold change vs veh, ZNF268 / Fold change vs veh, ZNF507 / RFU, DGCR2 / Fold change vs veh, DGCR2 / RFU, WDSUB1 / Fold change vs veh, WDSUB1 / Fold change vs veh, HSP90B1 /// MIR3652 / RFU, ADSS / Fold change vs veh, ADSS / RFU, GK / Fold change vs veh, GK / RFU, ZNF148 / Fold change vs veh, ZNF148 / RFU, TAF9 / Fold change vs veh, TAF9 / RFU, SLC1A5 / Fold change vs veh, SLC1A5 / RFU, SLMO2 / Fold change vs veh, SLMO2 / RFU, ABCC4 / Fold change vs veh, ABCC4 / RFU, LOC101060439 /// RAP1B / Fold change vs veh, LOC101060439 /// RAP1B / RFU, RFX7 / Fold change vs veh, RFX7 / RFU, GTPBP10 / Fold change vs veh, GTPBP10 / RFU, CNEP1R1 / Fold change vs veh, CNEP1R1 / RFU, BIVM-ERCC5 /// ERCC5 / Fold change vs veh, BIVM-ERCC5 /// ERCC5 / RFU, ILF3 / Fold change vs veh, ILF3 / RFU 11762660_at / Fold change /veh 11762660_at / RFU VCAN (11757783_s_at) / Fold change /veh VCAN (11757783_s_at) / RFU DDX43 (11728927_at) / Fold change /veh DDX43 (11728927_at) / RFU KRT8 (11758188_x_at) / Fold change /veh KRT8 (11758188_x_at) / RFU NKD1 (11759106_at) / Fold change /veh NKD1 (11759106_at) / RFU SRD5A1 (11742802_a_at) / Fold change /veh SRD5A1 (11742802_a_at) / RFU TPSAB1 /// TPSB2 (11721975_s_at) / Fold change /veh TPSAB1 /// TPSB2 (11721975_s_at) / RFU GSTM3 (11746129_a_at) / Fold change /veh GSTM3 (11746129_a_at) / RFU IL23R (11737362_x_at) / Fold change /veh IL23R (11737362_x_at) / RFU TMEM51 (11727254_a_at) / Fold change /veh TMEM51 (11727254_a_at) / RFU PIWIL2 (11732686_x_at) / Fold change /veh PIWIL2 (11732686_x_at) / RFU ORM1 (11744905_x_at) / Fold change /veh ORM1 (11744905_x_at) / RFU CCDC152 (11743942_at) / Fold change /veh CCDC152 (11743942_at) / RFU ECM1 (11717891_a_at) / Fold change /veh ECM1 (11717891_a_at) / RFU IL23R (11748794_a_at) / Fold change /veh IL23R (11748794_a_at) / RFU TNFAIP8L3 (11732012_x_at) / Fold change /veh TNFAIP8L3 (11732012_x_at) / RFU MBOAT4 (11741988_at) / Fold change /veh MBOAT4 (11741988_at) / RFU 11764193_at / Fold change /veh 11764193_at / RFU TMEM53 (11763286_at) / Fold change /veh TMEM53 (11763286_at) / RFU MAGEB2 (11727129_at) / Fold change /veh MAGEB2 (11727129_at) / RFU TMEM200A (11744735_a_at) / Fold change /veh TMEM200A (11744735_a_at) / RFU CCDC152 (11751479_a_at) / Fold change /veh CCDC152 (11751479_a_at) / RFU FAM211A (11726209_a_at) / Fold change /veh FAM211A (11726209_a_at) / RFU RGS16 (11746705_a_at) / Fold change /veh RGS16 (11746705_a_at) / RFU VCAN (11755009_s_at) / Fold change /veh VCAN (11755009_s_at) / RFU RHOB (11743442_s_at) / Fold change /veh RHOB (11743442_s_at) / RFU RGS16 (11720943_a_at) / Fold change /veh RGS16 (11720943_a_at) / RFU RGS16 (11720944_at) / Fold change /veh RGS16 (11720944_at) / RFU, VPS4B / Fold change vs veh, VPS4B / RFU, CREB1 / Fold change vs veh, CREB1 / RFU, DNAJC13 / Fold change vs veh, DNAJC13 / RFU, GNAQ / Fold change vs veh, GNAQ / RFU, CDK5R1 / Fold change vs veh, CDK5R1 / RFU, ZRANB3 / Fold change vs veh, ZRANB3 / RFU, CUL4A / Fold change vs veh, CUL4A / RFU, CCNY / Fold change vs veh, CCNY / RFU, UFL1 / Fold change vs veh, UFL1 / RFU, COG3 / Fold change vs veh, COG3 / RFU, DIAPH2 / Fold change vs veh, DIAPH2 / RFU, SKA2 / Fold change vs veh, SKA2 / RFU, AFF3 / Fold change vs veh, AFF3 / RFU, LMF1 / Fold change vs veh, LMF1 / RFU, IPO11 / Fold change vs veh, IPO11 / RFU, DFFB / Fold change vs veh, DFFB / RFU, FOXP1 / Fold change vs veh, FOXP1 / RFU, CARD8 / Fold change vs veh, CARD8 / RFU, STRN3 / Fold change vs veh, STRN3 / RFU, ADK / Fold change vs veh, ADK / RFU, RASSF2 / Fold change vs veh, RASSF2 / RFU, WIPF1 / Fold change vs veh, WIPF1 / RFU, LARP1B / Fold change vs veh, LARP1B / RFU, RASA1 / Fold change vs veh, RASA1 / RFU, RB1 / Fold change vs veh, RB1 / RFU, PPFIA1 / Fold change vs veh, PPFIA1 / RFU, MAT2A / Fold change vs veh, MAT2A / RFU, CCT5 / Fold change vs veh, CCT5 / RFU, WDR92 / Fold change vs veh, WDR92 / RFU, CUX1 / Fold change vs veh, CUX1 / RFU, TTC7A / Fold change vs veh, TTC7A / RFU, TMEM135 / Fold change vs veh, TMEM135 / RFU, DEPTOR / Fold change vs veh, DEPTOR / RFU, CPM / Fold change vs veh, CPM / RFU, DNAJB6 / Fold change vs veh, DNAJB6 / RFU, CACNA2D3 / Fold change vs veh, CACNA2D3 / RFU, DTX4 / Fold change vs veh, DTX4 / RFU, TFCP2 / Fold change vs veh, TFCP2 / RFU, GMCL1 /// GMCL1P1 / Fold change vs veh, GMCL1 /// GMCL1P1 / RFU, AEBP2 / Fold change vs veh, AEBP2 / RFU, SNHG1 /// SNORD22 /// SNORD25 /// SNORD26 /// SNORD27 /// SNORD28 /// SNORD29 /// SNORD31 / Fold change vs veh, SNHG1 /// SNORD22 /// SNORD25 /// SNORD26 /// SNORD27 /// SNORD28 /// SNORD29 /// SNORD31 / Fold change (Aza/veh), C12orf56 (ProbeSet 11735607_a_at) / Fold change (ACY-1035/veh), C12orf56 (ProbeSet 11735607_a_at) / Fold change (Aza/veh), FGFR1OP (ProbeSet 11751329_s_at) / Fold change (ACY-1035/veh), FGFR1OP (ProbeSet 11751329_s_at) / Fold change (Aza/veh), VPS36 (ProbeSet 11739960_a_at) / Fold change (ACY-1035/veh), VPS36 (ProbeSet 11739960_a_at) / RFU SYPL1 (11715823_x_at) / Fold change /veh SYPL1 (11715823_x_at) / RFU IGFBP7 (11715501_s_at) / Fold change /veh IGFBP7 (11715501_s_at) / RFU REEP3 (11722064_at) / Fold change /veh REEP3 (11722064_at) / RFU IGLL1 (11728026_x_at) / Fold change /veh IGLL1 (11728026_x_at): dose or concentration left out as unconfirmed
Settings: MV-4-11 cells, 48 hours

For `Nc1ccc(-c2cccs2)cc1NC(=O)c1ccc2c(c1)cc(C1CC1)n2CCN1CCOCC1` [ACY-1035], the “RFU IGFBP7 (11715501_s_at)” value was 134.15 RFU.
